{
  "source": "patent US20240327439A1",
  "about": "“PHARMACOLOGICAL AGENTS FOR PREVENTING AND TREATING CATARACTS AND PRESBYOPIA EYE DISEASES” (Plex Pharmaceuticals, Inc., priority 2021, published 2024)",
  "system": "Bovine lens lysates",
  "assay": "Prevention of UVC/H2O2-induced aggregation (opacification) of bovine lens extracts",
  "assay_type": "biochemical",
  "conditions": "bovine lens lysates 2 mg/ml, various concentrations of compound, UV-irradiated, vs vehicle 0.5% DMSO",
  "experimental": "Bovine lens lysates (2 mg/ml, 50 μl) were incubated with various concentrations of CAP1160 (structure shown below) or a vehicle (0.5% DMSO), and then left unexposed (no exposure) or exposed to UV (UV-irradiated). At various time points, wells-containing bovine lens lysates were pictured and the corresponding absorbance at 600 nm (A600) was measured. Representative brightfield images of wells taken 7 min after initial UV exposure (FIG. 1A) and corresponding A600 (FIG. 1B).",
  "data": [
    {"molecule": "Cc1ccc(C(=O)c2cc(O)c(O)c([N+](=O)[O-])c2)cc1", "note": "[CAP1160]", "values": [
      {"measurement": "opacification of bovine lens protein lysates induced by UV irradiation (absorbance at 600 nm, brightfield images)", "value": "delays, in a dose-dependent manner, the opacification"}
    ]}
  ]
}
